pIC50: −log10 of the molar value.
Columns and labels:
[1] = tested on: K. pneumoniae expressing the Class A ESBL CTX-M-15; test: microbe, parasite or virus in culture; assay type: cell-based; settings: in the presence of fixed 8 μg/mL Ceftazidime
[2] = target: T1, Class A carbapenemase KPC-2 (Klebsiella pneumoniae, UniProt Q9F663); test: β-lactamase enzyme inhibition (nitrocefin hydrolysis), KPC-2; assay type: biochemical; settings: purified enzyme; nitrocefin 100 μM, PBS pH 7.0; read-out: KPC-2 IC50 Range
T1 construct: made in house; host or cells: E. coli BL21(DE3)
Outline: (§1)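 Native untagged enzymes were expressed in E. coli BL21(DE3) and purified by cation exchange and gel filtration. Compound series (100–0.005 μM in PBS pH 7.0, before addition of an equal enzyme volume) were preincubated with enzyme 10 min at 37°C. Nitrocefin (100 μM final) hydrolysis was read kinetically at 486 nm for 10 min, and IC50 was taken as 50% reduction of initial rate versus no-inhibitor wells.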

[3] = tested on: K. pneumoniae expressing the Class A carbapenemase KPC-2; test: microbe, parasite or virus in culture; settings: in the presence of fixed 8 μg/mL Ceftazidime
Class C P99 AmpC = target: T2, Class C P99 AmpC (Enterobacter cloacae, UniProt P05364); assay type: biochemical; settings: purified enzyme; nitrocefin 100 μM, PBS pH 7.0; read-out: P99 AmpC IC50 Range
T2 construct: made in house; host or cells: E. coli BL21(DE3)
Outline: as §1

Class A ESBL CTXM-15 = target: T3, Class A ESBL CTXM-15 (Escherichia coli, UniProt Q9EXV5); test: β-lactamase enzyme inhibition (nitrocefin hydrolysis), CTXM-15; assay type: biochemical; settings: purified enzyme; nitrocefin 100 μM, PBS pH 7.0; read-out: CTXM-15 IC50 Range
T3 construct: made in house; host or cells: E. coli BL21(DE3)
Outline: as §1

Class A ESBL SHV-5 = target: T4, Class A ESBL SHV-5 (Klebsiella pneumoniae, UniProt P0A3M1); assay type: biochemical, E. coli; settings: purified beta-lactamase enzyme (Examples 1 and 31-64); nitrocefin 100 μM, PBS pH 7.0; read-out: SHV-5 IC50 Range
T4 construct: made in house; host or cells: E. coli BL21(DE3) for purified enzyme; E. coli cells containing SHV-5 for extracts

[4] = tested on: E. coli expressing the Class A ESBL SHV-5; test: microbe, parasite or virus in culture; assay type: cell-based; settings: in the presence of fixed 8 μg/mL Ceftazidime
Text: (§2) To determine the ability of test compounds to potentiate the inhibition of the growth of bacterial strains producing beta-lactamase enzymes, classic cell based screening assays were employed. Four bacteria strains producing beta-lactamase enzymes were used: K. pneumoniae expressing the Class A Extended Spectrum Beta-Lactamase (ESBL) CTX-M-15, E. coli expressing the Class A ESBL SHV-5, E. cloacae expressing the Class C P99+, and K. pneumoniae expressing the Class A carbapenemase KPC-2. In order to evaluate the ability of test compounds to inhibit beta-lactamase activity, Applicants used a modification of the broth microdilution assay. The assay was conducted in Cation Adjusted Mueller Hinton Broth (CAMHB, BD # 212322, BD Diagnostic Systems, Sparks, Md.). Bacteria strains were grown for 3-5 hours in CAMBH broth. All four strains were grown in presence of 50 μg/mL ampicillin to ensure resistance is maintained. In the meantime, test compounds were diluted in DMSO to a 0.1 mg/mL stock. The compounds were added to a microtiter plate and were diluted in 2-fold serial dilutions in CAMHB in a final concentration range of 8 μg/mL to 0.015 μg/ml. An overlay of CAMHB containing a cephalosporin was added to the compounds at a final static concentration of 8 μg/ml. […] Each of these compound plates are made in quadruplicate, one for each bacteria strain. In addition to the titration of test compounds the MICs of a panel of cephalosporins is also tested to ensure the strains are behaving consistently from test to test. Once the test compound and cephalosporin are added the plates can be inoculated. Inocula are conducted according to CLSI broth microdilution method. After inoculation the plates are incubated for 16-20 hours at 37° C. then the Minimal Inhibitory Concentration (MIC) of the test compound is determined visually.

[5] = tested on: E. cloacae expressing the Class C P99+ AmpC; test: microbe, parasite or virus in culture; assay type: cell-based; settings: in the presence of fixed 8 μg/mL Ceftazidime
Text: as §2

T2 sequence (P05364 21-381): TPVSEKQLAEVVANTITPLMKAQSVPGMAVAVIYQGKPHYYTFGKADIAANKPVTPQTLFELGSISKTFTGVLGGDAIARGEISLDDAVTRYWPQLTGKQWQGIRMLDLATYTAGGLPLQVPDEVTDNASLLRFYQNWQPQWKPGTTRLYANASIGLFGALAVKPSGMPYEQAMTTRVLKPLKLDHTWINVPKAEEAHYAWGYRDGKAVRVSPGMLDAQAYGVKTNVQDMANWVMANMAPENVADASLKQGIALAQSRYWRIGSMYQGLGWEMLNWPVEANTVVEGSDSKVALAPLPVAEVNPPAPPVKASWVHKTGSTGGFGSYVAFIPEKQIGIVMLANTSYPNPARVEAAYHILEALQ
T1 sequence (Q9F663 25-293 limits assumed): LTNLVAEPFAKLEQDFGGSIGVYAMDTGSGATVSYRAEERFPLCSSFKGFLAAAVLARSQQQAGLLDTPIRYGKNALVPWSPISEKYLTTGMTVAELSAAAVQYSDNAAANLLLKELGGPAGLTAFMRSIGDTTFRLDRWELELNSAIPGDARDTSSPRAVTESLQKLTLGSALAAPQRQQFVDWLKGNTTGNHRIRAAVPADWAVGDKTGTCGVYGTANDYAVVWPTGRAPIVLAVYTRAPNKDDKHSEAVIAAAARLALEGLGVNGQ
T3 sequence (Q9EXV5 entry or part of it): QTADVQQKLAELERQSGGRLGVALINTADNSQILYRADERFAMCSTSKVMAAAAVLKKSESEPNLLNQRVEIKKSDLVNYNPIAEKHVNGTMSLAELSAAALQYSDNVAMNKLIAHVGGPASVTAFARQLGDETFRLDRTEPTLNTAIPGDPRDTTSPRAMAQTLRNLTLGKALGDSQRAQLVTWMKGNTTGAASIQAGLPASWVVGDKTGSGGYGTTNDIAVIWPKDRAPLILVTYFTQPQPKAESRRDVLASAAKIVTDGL
T4 sequence (P0A3M1 22-286): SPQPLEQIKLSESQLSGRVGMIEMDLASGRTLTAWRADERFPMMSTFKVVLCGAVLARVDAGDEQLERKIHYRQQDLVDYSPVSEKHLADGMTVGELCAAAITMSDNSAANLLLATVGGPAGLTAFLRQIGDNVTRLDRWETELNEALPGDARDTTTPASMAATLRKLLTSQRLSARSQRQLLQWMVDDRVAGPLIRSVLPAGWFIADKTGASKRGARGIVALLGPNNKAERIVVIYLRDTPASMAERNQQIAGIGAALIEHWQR

In the case of `NCCC(=O)N[C@@H](Cc1cccc(C(=O)O)c1O)B(O)O.O=CO` [Example 38, (1R)-1-(3-aminopropanoylamino)-2-(2-hydroxy-3-carboxyphenyl)ethyl-1-boronic acid formate salt], the “MIC of example compound, K. pneumoniae CTX-M-15 + 8 μg/mL CAZ” value (“MIC … K. pneumoniae CTX-M-15 + 8 μg/mL CAZ” below) [1] was “A (A represents an MIC >8 μg/mL)”, the pIC50 [2] was 6.00 to 7.00 and the “MIC of example compound, K. pneumoniae KPC-2 + 8 μg/mL CAZ” value (“MIC … K. pneumoniae KPC-2 + 8 μg/mL CAZ” below) [3] was “C (C represents an MIC of <1 μg/mL)”. The pIC50 (Class C P99 AmpC) was 6.00 to 7.00, the pIC50 (Class A ESBL CTXM-15) was 6.00 to 7.00 and the pIC50 (Class A ESBL SHV-5) was under 6.00. For the same compound, the “MIC of example compound, E. coli SHV-5 + 8 μg/mL CAZ” value (“MIC … E. coli SHV-5 + 8 μg/mL CAZ” for short) [4] was “A (A represents an MIC >8 μg/mL)”.

With `NCc1cccc(C(=O)N[C@@H](Cc2cccc(C(=O)O)c2O)B(O)O)c1.O=CO` [Example 42, (1R)-1-(3-aminomethyl)-benzoylamino-1-(3-carboxy-2-hydroxy)benzyl-methyl boronic acid formate] the pIC50 [2] was 7.00 to 8.00, the “MIC … K. pneumoniae KPC-2 + 8 μg/mL CAZ” value [3] was “C (C represents an MIC of <1 μg/mL)” and the pIC50 (Class C P99 AmpC) was over 8.00. The pIC50 (Class A ESBL CTXM-15) was over 8.00, the pIC50 (Class A ESBL SHV-5) was 6.00 to 7.00 and the “MIC of example compound, E. cloacae P99 AmpC + 8 μg/mL CAZ” value [5] was “C (C represents an MIC of <1 μg/mL)”.

For `O=C(O)c1cccc(C[C@H](NC(=O)c2c(Cl)cccc2Cl)B(O)O)c1O` [Example 43, (1R)-1-(2,6-Dichlorobenzoyl)-amino-1-(3-carboxy-2-hydroxy)benzyl-methylboronic acid], the “MIC … K. pneumoniae CTX-M-15 + 8 μg/mL CAZ” value [1] was “A (A represents an MIC >8 μg/mL)”, the pIC50 [2] was 7.00 to 8.00 and the “MIC … K. pneumoniae KPC-2 + 8 μg/mL CAZ” value [3] was “A (A represents an MIC >8 μg/mL)”. For the same compound, the pIC50 (Class C P99 AmpC) was over 8.00, the pIC50 (Class A ESBL CTXM-15) was 7.00 to 8.00 and the pIC50 (Class A ESBL SHV-5) was under 6.00. The “MIC … E. coli SHV-5 + 8 μg/mL CAZ” value [4] was “A (A represents an MIC >8 μg/mL)”.

For `Cn1nc(-c2ccccc2)cc1C(=O)N[C@@H](Cc1cccc(C(=O)O)c1O)B(O)O` [Example 44, (1R)-1-(1-methyl-3-phenyl-1H-pyrazole-5-carbonyl-amino)-2-(2-hydroxy-3-carboxyphenyl)ethyl-1-boronic acid], the “MIC … K. pneumoniae CTX-M-15 + 8 μg/mL CAZ” value [1] was “A (A represents an MIC >8 μg/mL)”, the pIC50 [2] was 7.00 to 8.00 and the pIC50 (Class C P99 AmpC) was over 8.00. The pIC50 (Class A ESBL CTXM-15) was over 8.00, the pIC50 (Class A ESBL SHV-5) was over 8.00 and the “MIC … E. coli SHV-5 + 8 μg/mL CAZ” value [4] was “A (A represents an MIC >8 μg/mL)”.

For `Cc1nc(-c2cccc(C(=O)N[C@@H](Cc3cccc(C(=O)O)c3O)B(O)O)c2)no1` [Example 47, (1R)-1-[3-(5-methyl-[1,2,4]oxadiazol-3-yl)-benzoyl]-amino-1-(3-carboxy-2-hydroxy)benzyl-methylboronic acid], the “MIC … K. pneumoniae CTX-M-15 + 8 μg/mL CAZ” value [1] was “A (A represents an MIC >8 μg/mL)”, the pIC50 [2] was over 8.00 and the pIC50 (Class C P99 AmpC) was over 8.00. The pIC50 (Class A ESBL CTXM-15) was over 8.00, the pIC50 (Class A ESBL SHV-5) was 7.00 to 8.00 and the “MIC … E. coli SHV-5 + 8 μg/mL CAZ” value [4] was “A (A represents an MIC >8 μg/mL)”.

In the case of `O=C(Cc1cccnc1)N[C@@H](Cc1cccc(C(=O)O)c1O)B(O)O.O=CO` [Example 59, (1R)-1-(3-Pyridylacetylamino)-2-(2-hydroxy-3-carboxyphenyl)ethyl-1-boronic acid formate salt], the “MIC … K. pneumoniae CTX-M-15 + 8 μg/mL CAZ” value [1] was “C (C represents an MIC of <1 μg/mL)”, the pIC50 [2] was over 8.00 and the “MIC … K. pneumoniae KPC-2 + 8 μg/mL CAZ” value [3] was “C (C represents an MIC of <1 μg/mL)”. For the same compound, the pIC50 (Class C P99 AmpC) was over 8.00, the pIC50 (Class A ESBL CTXM-15) was over 8.00 and the pIC50 (Class A ESBL SHV-5) was over 8.00. The “MIC … E. coli SHV-5 + 8 μg/mL CAZ” value [4] was “C (C represents an MIC of <1 μg/mL)”.

For `O=C(O)c1cccc(C[C@H](NC(=O)[C@@H]2CCCN2)B(O)O)c1O.O=CO` [Example 64, (1R),(2′S)-1-(pyrrolidine-2-carbonylamino)-2-(2-hydroxy-3-carboxyphenyl)ethyl-1-boronic acid formate], the “MIC … K. pneumoniae CTX-M-15 + 8 μg/mL CAZ” value [1] was “A (A represents an MIC >8 μg/mL)”, the pIC50 [2] was 6.00 to 7.00 and the “MIC … K. pneumoniae KPC-2 + 8 μg/mL CAZ” value [3] was “C (C represents an MIC of <1 μg/mL)”. For the same compound, the pIC50 (Class C P99 AmpC) was 7.00 to 8.00, the pIC50 (Class A ESBL CTXM-15) was 6.00 to 7.00 and the pIC50 (Class A ESBL SHV-5) was under 6.00. The “MIC … E. coli SHV-5 + 8 μg/mL CAZ” value [4] was “A (A represents an MIC >8 μg/mL)”.
